The text below walks through data of US11548868B2, “Heterocyclic compounds, compositions comprising heterocyclic compound, and methods of use thereof” (JS INNOPHARM (SHANGHAI) LTD, priority 2017, dated 2023).

Where only a bound is given, the exact number is not on record here.

For experiment [1], the target named is T1, TDO2 in A172 cancer cells (Homo sapiens, UniProt P48775).
T1 construct: endogenous in cells; host or cells: A172 cancer cells
As to the kind of experiment: TDO2 Cellular Assay (kynurenine production in A172 cancer cells). The experiment is classed as cell-based. As to conditions: L-Trp 1 mM, 24 hours incubation, kynurenine at 490 nm. In a few lines: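 A172 cells seeded overnight, then given 1 mM L-Trp and test compound (0–25 μM, 0.25% DMSO) for 24 h at 37 °C. Supernatant treated with TCA at 50 °C to convert N-formylkynurenine, kynurenine detected with p-dimethylaminobenzaldehyde at 490 nm; IC50 by non-linear regression of inhibition versus DMSO control.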

Experiment [2] deals with T2, IDO1 in Hela cancer cells (Homo sapiens, UniProt P14902).
T2 construct: endogenous in cells; host or cells: Hela cancer cells stimulated with human IFN-γ
As to the kind of experiment: IDO1 Cellular Assay (kynurenine production in IFN-γ stimulated Hela cancer cells). The experiment is classed as cell-based. As to conditions: human IFN-γ 50 ng/mL, 48 hours incubation, kynurenine at 490 nm. The procedure, abridged:
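HeLa cells stimulated with 50 ng/mL IFN-γ (final) and treated 48 h with compound (0–25 μM final, 0.25% DMSO). Supernatant kynurenine measured after TCA hydrolysis and p-dimethylaminobenzaldehyde reaction at 490 nm; inhibition vs DMSO control, IC50 by non-linear regression.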

T2 sequence (P14902 whole entry): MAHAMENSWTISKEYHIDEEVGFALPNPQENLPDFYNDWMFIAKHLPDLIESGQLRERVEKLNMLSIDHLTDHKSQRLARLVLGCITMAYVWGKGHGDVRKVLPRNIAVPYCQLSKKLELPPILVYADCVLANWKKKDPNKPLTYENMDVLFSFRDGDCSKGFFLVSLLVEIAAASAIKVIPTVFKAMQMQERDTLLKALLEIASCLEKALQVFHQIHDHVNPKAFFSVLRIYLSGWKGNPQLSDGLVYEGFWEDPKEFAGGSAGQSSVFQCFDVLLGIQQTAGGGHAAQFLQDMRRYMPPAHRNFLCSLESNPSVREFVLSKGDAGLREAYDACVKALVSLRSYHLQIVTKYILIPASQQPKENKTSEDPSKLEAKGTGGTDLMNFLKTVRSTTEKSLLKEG
T1 sequence (P48775 whole entry): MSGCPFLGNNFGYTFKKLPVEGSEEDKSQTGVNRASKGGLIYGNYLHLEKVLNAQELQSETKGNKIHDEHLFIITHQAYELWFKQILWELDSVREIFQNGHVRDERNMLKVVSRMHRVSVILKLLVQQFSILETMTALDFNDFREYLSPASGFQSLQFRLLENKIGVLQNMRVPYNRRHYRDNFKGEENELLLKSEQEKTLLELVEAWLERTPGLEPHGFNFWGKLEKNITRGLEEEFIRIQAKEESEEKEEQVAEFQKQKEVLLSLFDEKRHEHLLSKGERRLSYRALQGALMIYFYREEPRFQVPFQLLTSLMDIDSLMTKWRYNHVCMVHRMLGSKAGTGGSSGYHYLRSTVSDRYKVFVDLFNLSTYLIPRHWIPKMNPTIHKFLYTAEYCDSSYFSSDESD

For the compound `O=C(C1CCOCC1)N1C[C@@H]2C[C@@](O)(c3cc(Cl)cc4cn[nH]c34)C[C@@H]2C1` [Example 97, ((3aR,5r,6aS)-5-(5-chloro-1H-indazol-7-yl)-5-hydroxyhexahydrocyclopenta[c]pyrrol-2(1H)-yl)(tetrahydro-2H-pyran-4-yl)methanone], the IC50 in experiment [1] and in experiment [2] was greater than 5000 nM in each case.

With `O=C(c1ccccc1)N1C[C@@H]2C[C@@](O)(c3cc(Cl)cc4cn[nH]c34)C[C@@H]2C1` [Example 98, ((3aR,5r,6aS)-5-(5-chloro-1H-indazol-7-yl)-5-hydroxyhexahydrocyclopenta[c]pyrrol-2(1H)-yl)(phenyl)methanone], the IC50 in experiment [1] and in experiment [2] was greater than 5000 nM in each case.

Consider `O=C(C1CC1)N1C[C@@H]2C[C@@](O)(c3cc(Cl)cc4cn[nH]c34)C[C@@H]2C1` [Example 99, ((3aR,5r,6aS)-5-(5-chloro-1H-indazol-7-yl)-5-hydroxyhexahydrocyclopenta[c]pyrrol-2(1H)-yl)(cyclopropyl)methanone], for which the IC50 in experiment [1] was 1000 to 5000 nM; in experiment [2], greater than 5000 nM.

Turning to `O=S(=O)(C1CC1)N1C[C@@H]2C[C@@](O)(c3cc(Cl)cc4cn[nH]c34)C[C@@H]2C1` [Example 100, (3aR,5r,6aS)-5-(5-chloro-1H-indazol-7-yl)-2-(cyclopropylsulfonyl)octahydrocyclopenta[c]pyrrol-5-ol], the results for the half-maximal inhibitory concentration (IC50) in experiment [1] and in experiment [2] were 1000 to 5000 nM and greater than 5000 nM, respectively.

For the compound `O=S(=O)(C1CCOCC1)N1C[C@@H]2C[C@@](O)(c3cc(Cl)cc4cn[nH]c34)C[C@@H]2C1` [Example 101, (3aR,5r,6aS)-5-(5-chloro-1H-indazol-7-yl)-2-((tetrahydro-2H-pyran-4-yl)sulfonyl)octahydrocyclopenta[c]pyrrol-5-ol], the figures for the 50% inhibitory concentration (IC50) in experiment [1] and in experiment [2] were 1000 to 5000 nM and greater than 5000 nM, respectively.

`O=S(=O)(c1ccccc1)N1C[C@@H]2C[C@@](O)(c3cc(Cl)cc4cn[nH]c34)C[C@@H]2C1` [Example 102, (3aR,5r,6aS)-5-(5-chloro-1H-indazol-7-yl)-2-(phenylsulfonyl)octahydrocyclopenta[c]pyrrol-5-ol]: the 50% inhibitory concentration (IC50) in experiment [1] and in experiment [2] was greater than 5000 nM in each case.

In the case of `CC(=O)N1C[C@H]2CC(C(O)c3cc(Cl)cc4[nH]ncc34)C[C@H]2C1` (stereo partly drawn) [Example 104, 1-((3aR,6aS)-5-((6-chloro-1H-indazol-4-yl)(hydroxy)methyl)hexahydrocyclopenta[c]pyrrol-2(1H)-yl)ethanone], the concentration for half-maximal inhibition (IC50) in experiment [1] was 500 to 1000 nM; in experiment [2] it was greater than 5000 nM.

Consider `CS(=O)(=O)N1C[C@H]2CC(C(O)c3cc(Cl)cc4[nH]ncc34)C[C@H]2C1` (stereo partly drawn) [Example 105, (6-chloro-1H-indazol-4-yl)((3aR,6aS)-2-(methylsulfonyl)octahydrocyclopenta[c]pyrrol-5-yl)methanol], for which the IC50 in experiment [1] was no more than 500 nM; in experiment [2], greater than 5000 nM.

Take `O[C@@H]1C[C@@H]2C[C@@](O)(c3cc(Cl)cc4cn[nH]c34)C[C@@H]2C1` [Example 106, (2r,3aR,5s,6aS)-2-(5-chloro-1H-indazol-7-yl)octahydropentalene-2,5-diol]: the IC50 is 500 to 1000 nM in experiment [1] and greater than 5000 nM in experiment [2].

With `O=C(N[C@H]1[C@@H]2C[C@@](O)(c3cc(Cl)cc4cn[nH]c34)C[C@@H]21)C1CC1` [Example 107, N-((1R,3r,5S,6r)-3-(5-chloro-1H-indazol-7-yl)-3-hydroxybicyclo[3.1.0]hexan-6-yl)cyclopropanecarboxamide], the results for the IC50 in experiment [1] and in experiment [2] were no more than 500 nM and greater than 5000 nM, respectively.

Turning to `CC(=O)N[C@H]1[C@@H]2C[C@@](O)(c3cc(Cl)cc4cn[nH]c34)C[C@@H]21` [Example 108, N-((1R,3r,5S,6r)-3-(5-chloro-1H-indazol-7-yl)-3-hydroxybicyclo[3.1.0]hexan-6-yl)acetamide], the 50% inhibitory concentration (IC50) in experiment [1] was no more than 500 nM; in experiment [2], greater than 5000 nM.

As to `CS(=O)(=O)N[C@H]1[C@@H]2C[C@@](O)(c3cc(Cl)cc4cn[nH]c34)C[C@@H]21` [Example 109, N-((1R,3r,5S,6r)-3-(5-chloro-1H-indazol-7-yl)-3-hydroxybicyclo[3.1.0]hexan-6-yl)methanesulfonamide], the results for the 50% inhibitory concentration (IC50) in experiment [1] and in experiment [2] were 500 to 1000 nM and 1000 to 5000 nM, respectively.

Regarding `O=S(=O)(N[C@H]1[C@@H]2C[C@@](O)(c3cc(Cl)cc4cn[nH]c34)C[C@@H]21)C1CC1` [Example 110, N-((1R,3r,5S,6r)-3-(5-chloro-1H-indazol-7-yl)-3-hydroxybicyclo[3.1.0]hexan-6-yl)cyclopropanesulfonamide], the IC50 in experiment [1] and in experiment [2] was 1000 to 5000 nM each time.

Turning to `OCC1[C@H]2C[C@](O)(c3cc(Cl)cc4[nH]ncc34)C[C@@H]12` (stereo partly drawn) [Example 111, (1R,3r,5S)-3-(6-chloro-1H-indazol-4-yl)-6-(hydroxymethyl)bicyclo[3.1.0]hexan-3-ol], the half-inhibitory concentration (IC50) is no more than 500 nM in experiment [1] and 1000 to 5000 nM in experiment [2].

Consider `CC(=O)N1C[C@H]2CC(C(O)c3cc(Cl)cc4cn[nH]c34)C[C@H]2C1` (stereo partly drawn) [Example 112, 1-((3aR,6aS)-5-((5-chloro-1H-indazol-7-yl)(hydroxy)methyl)hexahydrocyclopenta[c]pyrrol-2(1H)-yl)ethanone], for which the results for the IC50 in experiment [1] and in experiment [2] were greater than 5000 nM and 500 to 1000 nM, respectively.

As for `CS(=O)(=O)N1C[C@H]2CC(C(O)c3cc(Cl)cc4cn[nH]c34)C[C@H]2C1` (stereo partly drawn) [Example 113, (5-chloro-1H-indazol-7-yl)((3aR,6aS)-2-(methylsulfonyl)octahydrocyclopenta[c]pyrrol-5-yl)methanol], the 50% inhibitory concentration (IC50) in experiment [1] and in experiment [2] was 1000 to 5000 nM throughout.

Take `CNC(=O)N[C@H]1[C@@H]2C[C@@](O)(c3cc(Cl)cc4[nH]ncc34)C[C@@H]21` [Example 114, 1-((1R,3r,5S,6r)-3-(6-chloro-1H-indazol-4-yl)-3-hydroxybicyclo[3.1.0]hexan-6-yl)-3-methylurea]: the IC50 in experiment [1] was no more than 500 nM; in experiment [2], greater than 5000 nM.

With `O=C(Nc1ccccc1)N[C@H]1[C@@H]2C[C@@](O)(c3cc(Cl)cc4[nH]ncc34)C[C@@H]21` [Example 115, 1-((1R,3r,5S,6r)-3-(6-chloro-1H-indazol-4-yl)-3-hydroxybicyclo[3.1.0]hexan-6-yl)-3-phenylurea], the IC50 in experiment [1] was no more than 500 nM; in experiment [2], 1000 to 5000 nM.

On to `O[C@@]1(c2cc(Cl)cc3[nH]ncc23)C[C@H]2CN(c3ccncc3)C[C@H]2C1` [Example 116, (3aR,5r,6aS)-5-(6-chloro-1H-indazol-4-yl)-2-(pyridin-4-yl)octahydrocyclopenta[c]pyrrol-5-ol], for which the IC50 in experiment [1] was no more than 500 nM; in experiment [2] it was greater than 5000 nM.

`O[C@@]1(c2cc(Cl)cc3cn[nH]c23)C[C@H]2CN(c3ccncc3)C[C@H]2C1` [Example 117, (3aR,5r,6aS)-5-(5-chloro-1H-indazol-7-yl)-2-(pyridin-4-yl)octahydrocyclopenta[c]pyrrol-5-ol]: the IC50 in experiment [1] and in experiment [2] was greater than 5000 nM throughout.

For `O[C@@]1(c2cc(Cl)cc3cn[nH]c23)C[C@H]2C[C@H]2C1` [Example 118, (1R,3r,5S)-3-(5-chloro-1H-indazol-7-yl)bicyclo[3.1.0]hexan-3-ol], the concentration for half-maximal inhibition (IC50) was 1000 to 5000 nM in experiment [1] and greater than 5000 nM in experiment [2].

On to `O=C(N[C@H]1[C@@H]2C[C@@](O)(c3cc(Cl)cc4[nH]ncc34)C[C@@H]21)c1ccc(Cl)cc1` [Example 119, 4-chloro-N-((1R,3r,5S,6r)-3-(6-chloro-1H-indazol-4-yl)-3-hydroxybicyclo[3.1.0]hexan-6-yl)benzamide], for which the IC50 in experiment [1] and in experiment [2] was no more than 500 nM in each case.

For `O=C(NC1CC1)N[C@H]1[C@@H]2C[C@@](O)(c3cc(Cl)cc4[nH]ncc34)C[C@@H]21` [Example 120, 1-((1R,3r,5S,6r)-3-(6-chloro-1H-indazol-4-yl)-3-hydroxybicyclo[3.1.0]hexan-6-yl)-3-cyclopropylurea], the values for the IC50 in experiment [1] and in experiment [2] were no more than 500 nM and greater than 5000 nM, respectively.

For `O=C(Nc1ccc(Cl)cc1)N[C@H]1[C@@H]2C[C@@](O)(c3cc(Cl)cc4[nH]ncc34)C[C@@H]21` [Example 121, 1-((1R,3r,5S,6r)-3-(6-chloro-1H-indazol-4-yl)-3-hydroxybicyclo[3.1.0]hexan-6-yl)-3-(4-chlorophenyl)urea], the concentration for half-maximal inhibition (IC50) in experiment [1] and in experiment [2] was no more than 500 nM throughout.

`O=C(Nc1cccc(Cl)c1)N[C@H]1[C@@H]2C[C@@](O)(c3cc(Cl)cc4[nH]ncc34)C[C@@H]21` [Example 122, 1-((1R,3r,5S,6r)-3-(6-chloro-1H-indazol-4-yl)-3-hydroxybicyclo[3.1.0]hexan-6-yl)-3-(3-chlorophenyl)urea]: the IC50 in experiment [1] and in experiment [2] was 1000 to 5000 nM throughout.

In the case of `O=S(=O)(NC1CCCCC1)N[C@H]1[C@@H]2C[C@@](O)(c3cc(Cl)cc4[nH]ncc34)C[C@@H]21` [Example 123, N′-cyclohexyl-N-((1R,3r,5S,6r)-3-(6-chloro-1H-indazol-4-yl)-3-hydroxybicyclo[3.1.0]hexan-6-yl)sulfuric diamide], the IC50 in experiment [1] was no more than 500 nM; in experiment [2] it was 1000 to 5000 nM.

Consider `O=C(N[C@H]1[C@@H]2C[C@@](O)(c3cc(Cl)cc4[nH]ncc34)C[C@@H]21)c1cccc(Cl)c1` [Example 124, 3-chloro-N-((1R,3r,5S,6r)-3-(6-chloro-1H-indazol-4-yl)-3-hydroxybicyclo[3.1.0]hexan-6-yl)benzamide], for which the IC50 in experiment [1] and in experiment [2] was no more than 500 nM in each case.

A word on the IC50: it is the concentration that gives 50% inhibition.
